Assay results reported in PMC10518255, “A first-in-class pan-lysyl oxidase inhibitor impairs stromal remodeling and enhances gemcitabine response and survival in pancreatic cancer” (Nature Cancer, 2023).

Test system: LOX
Experiment: Time-dependent inhibition with pre-incubation 0-240 min (Fig. 2d)
Assay type: biochemical
Source text: Data are presented as mean ± s.d. […] Data presented as mean ± s.d. […] Source data TEXT PRINTED IN THE PICTURE: (b) PXS-5505: Recombinant DAO IC50 (nM): >30,000; Recombinant SSAO/VAP1 IC50 (nM): >30,000; Recombinant MAO-A IC50 (nM): >30,000; Recombinant MAO-B IC50 (nM): >30,000 | (f) PXS-5505: Fibroblast LOX IC50 (nM): 4,930; Recombinant LOXL-1 IC50 (nM): 1,590; Recombinant LOXL-2 IC50 (nM): 570; Recombinant LOXL-3 IC50 (nM): 1,800; Recombinant LOXL-4 IC50 (nM): 190
Similar to other fluoroallylamine-based amine oxidase inhibitors, the mode of inhibition is assumed to be a two-step mechanism (Fig. 2c), with PXS-5505 reacting with the unique LTQ cofactor found within the active site. The fluoroallylamine facilitates the formation of a covalent, irreversible bond. […] Furthermore, in jump dilution experiments, there is no significant recovery of activity following rapid dilution (LOXL1 (5 ± 5% recovery, n = 4), LOXL2 (7 ± 1.2% recovery, n = 3) and LOXL3 (11 ± 2% recovery, n = 3)).

For `Cl.Cl.NC/C=C(\F)CS(=O)(=O)c1cccc2cccnc12.O` [PXS-5505, (Z)-3-fluoro-4-(quinolin-8-ylsulfonyl)but-2-en-1-amine dihydrochloride monohydrate], the LOX specific activity (pre-incubation 0 min, log conc -4.52288) was 32.1036, the LOX specific activity (pre-incubation 0 min, log conc -5) was 64.3382 and the LOX specific activity (pre-incubation 0 min, log conc -5.47756) was 84.6897. The LOX specific activity (pre-incubation 0 min, log conc -5.95468) was 91.8109, the LOX specific activity (pre-incubation 0 min, log conc -6.4318) was 92.4662 and the LOX specific activity (pre-incubation 0 min, log conc -6.91009) was 98.7719. The LOX specific activity (pre-incubation 0 min, log conc -7.3851) was 96.7913, the LOX specific activity (pre-incubation 0 min, log conc -7.86328) was 102.005 and the LOX specific activity (pre-incubation 0 min, log conc -8.34008) was 102.107. The LOX specific activity (pre-incubation 0 min, log conc -8.81816) was 98.6554, the LOX specific activity (pre-incubation 0 min, log conc -9.29414) was 106.228 and the LOX specific activity (pre-incubation 0 min, log conc -9.77126) was 108.063. For the same compound, the LOX specific activity (pre-incubation 15 min, log conc -4.52288) was 9.177, the LOX specific activity (pre-incubation 15 min, log conc -5) was 32.3488 and the LOX specific activity (pre-incubation 15 min, log conc -5.47756) was 65.4986. The LOX specific activity (pre-incubation 15 min, log conc -5.95468) was 81.8309, the LOX specific activity (pre-incubation 15 min, log conc -6.4318) was 89.7677 and the LOX specific activity (pre-incubation 15 min, log conc -6.91009) was 93.4569. For the same compound, the LOX specific activity (pre-incubation 15 min, log conc -7.3851) was 96.3684, the LOX specific activity (pre-incubation 15 min, log conc -7.86328) was 90.7581 and the LOX specific activity (pre-incubation 15 min, log conc -8.34008) was 96.0493. The LOX specific activity (pre-incubation 15 min, log conc -8.81816) was 95.7037, the LOX specific activity (pre-incubation 15 min, log conc -9.29414) was 99.1403 and the LOX specific activity (pre-incubation 15 min, log conc -9.77126) was 98.9675. The LOX specific activity (pre-incubation 30 min, log conc -4.52288) was 2.6085, the LOX specific activity (pre-incubation 30 min, log conc -5) was 10.9871 and the LOX specific activity (pre-incubation 30 min, log conc -5.47756) was 44.0429. For the same compound, the LOX specific activity (pre-incubation 30 min, log conc -5.95468) was 69.7571, the LOX specific activity (pre-incubation 30 min, log conc -6.4318) was 82.4602 and the LOX specific activity (pre-incubation 30 min, log conc -6.91009) was 92.2531. For the same compound, the LOX specific activity (pre-incubation 30 min, log conc -7.3851) was 91.8445, the LOX specific activity (pre-incubation 30 min, log conc -7.86328) was 100.827 and the LOX specific activity (pre-incubation 30 min, log conc -8.34008) was 94.7736. For the same compound, the LOX specific activity (pre-incubation 30 min, log conc -8.81816) was 95.6095, the LOX specific activity (pre-incubation 30 min, log conc -9.29414) was 101.078 and the LOX specific activity (pre-incubation 30 min, log conc -9.77126) was 104.925. For the same compound, the LOX specific activity (pre-incubation 60 min, log conc -4.52288) was -1.9, the LOX specific activity (pre-incubation 60 min, log conc -5) was 1.453 and the LOX specific activity (pre-incubation 60 min, log conc -5.47756) was 20.7125. The LOX specific activity (pre-incubation 60 min, log conc -5.95468) was 53.0465, the LOX specific activity (pre-incubation 60 min, log conc -6.4318) was 78.5482 and the LOX specific activity (pre-incubation 60 min, log conc -6.91009) was 90.7227. It also gave an LOX specific activity (pre-incubation 60 min, log conc -7.3851) of 95.8188, an LOX specific activity (pre-incubation 60 min, log conc -7.86328) of 101.294 and an LOX specific activity (pre-incubation 60 min, log conc -8.34008) of 102.525. For the same compound, the LOX specific activity (pre-incubation 60 min, log conc -8.81816) was 100.564, the LOX specific activity (pre-incubation 60 min, log conc -9.29414) was 101.737 and the LOX specific activity (pre-incubation 60 min, log conc -9.77126) was 102.743. The LOX specific activity (pre-incubation 120 min, log conc -4.52288) was 2.378, the LOX specific activity (pre-incubation 120 min, log conc -5) was 0.7896 and the LOX specific activity (pre-incubation 120 min, log conc -5.47756) was 6.366. For the same compound, the LOX specific activity (pre-incubation 120 min, log conc -5.95468) was 21.6941, the LOX specific activity (pre-incubation 120 min, log conc -6.4318) was 62.059 and the LOX specific activity (pre-incubation 120 min, log conc -6.91009) was 92.1986. It also gave an LOX specific activity (pre-incubation 120 min, log conc -7.3851) of 91.1259, an LOX specific activity (pre-incubation 120 min, log conc -7.86328) of 98.8619 and an LOX specific activity (pre-incubation 120 min, log conc -8.34008) of 100.244. The LOX specific activity (pre-incubation 120 min, log conc -8.81816) was 100.045, the LOX specific activity (pre-incubation 120 min, log conc -9.29414) was 96.9572 and the LOX specific activity (pre-incubation 120 min, log conc -9.77126) was 100.753. The LOX specific activity (pre-incubation 240 min, log conc -4.52288) was -3.18, the LOX specific activity (pre-incubation 240 min, log conc -5) was 0.3645 and the LOX specific activity (pre-incubation 240 min, log conc -5.47756) was 8.283. It also gave an LOX specific activity (pre-incubation 240 min, log conc -5.95468) of 6.894, an LOX specific activity (pre-incubation 240 min, log conc -6.4318) of 35.306 and an LOX specific activity (pre-incubation 240 min, log conc -6.91009) of 69.9646. For the same compound, the LOX specific activity (pre-incubation 240 min, log conc -7.3851) was 87.2279, the LOX specific activity (pre-incubation 240 min, log conc -7.86328) was 94.5493 and the LOX specific activity (pre-incubation 240 min, log conc -8.34008) was 99.3255. The LOX specific activity (pre-incubation 240 min, log conc -8.81816) was 102.317, the LOX specific activity (pre-incubation 240 min, log conc -9.29414) was 102.769 and the LOX specific activity (pre-incubation 240 min, log conc -9.77126) was 103.159. The “time-dependent inhibition of LOX specific activity” value (pre-incubation time 0–240 min) was “increased potency with increased pre-incubation time”.
